Laboratory results reported in ChEMBL document CHEMBL3885881, “DrugMatrix”.

Species on record: Rattus norvegicus
Experiment: DrugMatrix - Regimen: Daily Repeat
Assay type: toxicity, organism-based, Sprague-Dawley
Parameters: regimen Daily Repeat, gender Male, age 6-8 weeks
Settings: in vivo, sc, 47.4 mg/kg, route subcutaneous, dose level Low, […]; for ABSOLUTE BASOPHIL / ABSOLUTE EOSINOPHIL / ABSOLUTE LYMPHOCYTE / ABSOLUTE MONOCYTE / ABSOLUTE SEGMENTED NEUTROPHIL / BASOPHIL / EOSINOPHIL / ERYTHROCYTE COUNT / HEMATOCRIT / HEMOGLOBIN / LEUKOCYTE COUNT / LYMPHOCYTE / MEAN CORPUSCULAR HEMOGLOBIN / MEAN CORPUSCULAR HEMOGLOBIN CONCENTRATION / MEAN CORPUSCULAR VOLUME / MONOCYTE / NEUTROPHIL / NUCLEATED RED BLOOD CELLS / PLATELET COUNT: tissue Blood; for ALANINE AMINOTRANSFERASE / ALBUMIN / ALKALINE PHOSPHATASE / ASPARTATE AMINOTRANSFERASE / BLOOD UREA NITROGEN / CARBON DIOXIDE / CHLORIDE / CHOLESTEROL / CREATINE PHOSPHOKINASE / CREATININE / GLUCOSE / LACTATE DEHYDROGENASE / LIPASE / PHOSPHORUS / POTASSIUM / SODIUM / TOTAL BILIRUBIN / TOTAL PROTEIN / URIC ACID: tissue Plasma

## O=C(O)C(Cl)(Cl)Cl [TRICHLOROACETIC ACID]
72 h, time 3 day
  ABSOLUTE BASOPHIL: 0 CELLS/uL
  ABSOLUTE EOSINOPHIL: 262.67 CELLS/uL
  ABSOLUTE LYMPHOCYTE: 11309 CELLS/uL
  ABSOLUTE MONOCYTE: 301 CELLS/uL
  ABSOLUTE SEGMENTED NEUTROPHIL: 1027.33 CELLS/uL
  BASOPHIL: 0%
  EOSINOPHIL: 2%
  ERYTHROCYTE COUNT: 5.38 x10E6/uL
  HEMATOCRIT: 34.53%
  HEMOGLOBIN: 12.9 G/DL
  LEUKOCYTE COUNT: 12.9 x10E3/uL
  LYMPHOCYTE: 87.67%
  MEAN CORPUSCULAR HEMOGLOBIN: 24.07 pg
  MEAN CORPUSCULAR HEMOGLOBIN CONCENTRATION: 37.33 G/DL
  MEAN CORPUSCULAR VOLUME: 64.37 fL
  MONOCYTE: 2.33%
  NEUTROPHIL: 8%
  NUCLEATED RED BLOOD CELLS: 0 /100WBC
  PLATELET COUNT: 1349.67 x10E3/uL
  ALANINE AMINOTRANSFERASE: 42.67 u/L
  ALBUMIN: 4.2 G/DL
  ALKALINE PHOSPHATASE: 412.67 u/L
  ASPARTATE AMINOTRANSFERASE: 83.33 u/L
  BLOOD UREA NITROGEN: 15.33 mg/dL
  CARBON DIOXIDE: 25.67 mmol/L
  CHLORIDE: 105.67 MEQ/L
  CHOLESTEROL: 63 mg/dL
  CREATINE PHOSPHOKINASE: 270.33 u/L
  CREATININE: 0.23 mg/dL
  GLUCOSE: 155.33 mg/dL
  LACTATE DEHYDROGENASE: 325.67 u/L
  LIPASE: 8.67 u/L
  PHOSPHORUS: 12.73 mg/dL
  POTASSIUM: 6.4 MEQ/L
  SODIUM: 146.37 MEQ/L
  TOTAL BILIRUBIN: 0.17 mg/dL
  TOTAL PROTEIN: 5.3 G/DL
  URIC ACID: 1.27 mg/dL
120 h, time 5 day
  ABSOLUTE BASOPHIL: 0 CELLS/uL
  ABSOLUTE EOSINOPHIL: 0 CELLS/uL
  ABSOLUTE LYMPHOCYTE: 12836 CELLS/uL
  ABSOLUTE MONOCYTE: 332 CELLS/uL
  ABSOLUTE SEGMENTED NEUTROPHIL: 898.67 CELLS/uL
  BASOPHIL: 0%
  EOSINOPHIL: 0%
  ERYTHROCYTE COUNT: 5.4 x10E6/uL
  HEMATOCRIT: 33.93%
  HEMOGLOBIN: 12.87 G/DL
  LEUKOCYTE COUNT: 14.07 x10E3/uL
  LYMPHOCYTE: 91.33%
  MEAN CORPUSCULAR HEMOGLOBIN: 23.87 pg
  MEAN CORPUSCULAR HEMOGLOBIN CONCENTRATION: 37.93 G/DL
  MEAN CORPUSCULAR VOLUME: 62.87 fL
  MONOCYTE: 2.33%
  NEUTROPHIL: 6.33%
  NUCLEATED RED BLOOD CELLS: 0 /100WBC
  PLATELET COUNT: 1378 x10E3/uL
  ALANINE AMINOTRANSFERASE: 40 u/L
  ALBUMIN: 4.2 G/DL
  ALKALINE PHOSPHATASE: 302.67 u/L
  ASPARTATE AMINOTRANSFERASE: 75.33 u/L
  BLOOD UREA NITROGEN: 20 mg/dL
  CARBON DIOXIDE: 28.33 mmol/L
  CHLORIDE: 105.67 MEQ/L
  CHOLESTEROL: 66.33 mg/dL
  CREATINE PHOSPHOKINASE: 164.33 u/L
  CREATININE: 0.19 mg/dL
  GLUCOSE: 166.33 mg/dL
  LACTATE DEHYDROGENASE: 114 u/L
  LIPASE: 8 u/L
  PHOSPHORUS: 13.1 mg/dL
  POTASSIUM: 6.29 MEQ/L
  SODIUM: 148.4 MEQ/L
  TOTAL BILIRUBIN: 0.17 mg/dL
  TOTAL PROTEIN: 5.63 G/DL
  URIC ACID: 1.6 mg/dL
